Here are results for three substances from patent publication US20250320496A1, “MODULATION OF ABCB11 GENE TRANSCRIPTION USING ANTISENSE OLIGONUCLEOTIDES TARGETING REGULATORY RNAS” (CAMP4 Therapeutics Corporation, priority 2022, published 2025).

Strand notation (5' to 3'): a small letter for the sugar, then the base; units joined by * are phosphorothioate-linked, units joined directly phosphodiester-linked; [ ] holds rarer units or linkages, { } end groups; capitals alone tell only the bases. e = 2'-O-(2-methoxyethyl) (MOE); {TEG} = Teg-GalNAc conjugate; [5mC] = 5-methylcytosine

The test system of data set [1] is human ABCB11 mRNA. The data set is described as follows: ASO treatment of primary human hepatocytes (PHH), ABCB11 mRNA by RT-qPCR normalized to B2M. The format is cell-based. More on the design: ABCB11 mRNA, dose titration: unit of the concentration uncertain. Particulars: for ABCB11 mRNA, dose titration: CO-3986 and CO-4529 tested at 2.5 (unit uncertain), 5 μM, and 10 μM. An outline of the steps:
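Plated primary human hepatocytes were treated 4 h post-thaw with ASO (e.g., 1.25–10 μM; initial screen 5 μM) in medium containing 0.3 mg/ml Matrigel for 72 hrs. Total RNA was reverse-transcribed and ABCB11 mRNA measured by Taqman RT-qPCR, normalized to B2M, with fold change versus untreated PHHs.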
In general terms: Quantitative PCR measures a nucleic acid by following its amplification.

Another data set has as its system CYP7A1 mRNA. The data set is described as follows: ASO treatment of primary human hepatocytes (PHH), CYP7A1 mRNA by RT-qPCR normalized to B2M. The format is cell-based. Particulars: for expression of CYP7A1 mRNA, dose response: PHHs (FIG. 3B). As for the experimental part: Primary human hepatocytes (PHH) were thawed using Lonza Human Cryopreserved Hepatocyte Thawing Medium and plated in 96-well collagen-coated plates (5.5-6.0×10^4 cells per well). Four hours later, the media was replaced with sterile-filtered QualGro™ Hepatocyte Culture Medium (BioIVT) containing antibiotic supplement, 0.3 mg/ml Matrigel® matrix (Corning®), and ASO at the desired concentration (e.g., 1.25 μM, 2.5 μM, 5 μM, or 10 μM). […] Plates were frozen at-80° C. during cell lysis. After thawing, total RNA was isolated using the Qiagen RNEasy kit as instructed by manufacturer. cDNA (random-primed) was synthesized from 10 μl of RNA using the LifeTech High Capacity cDNA Reverse Transcription kit. 2 μl of cDNA was used for reverse transcription-quantitative PCR (RT-qPCR) analyses using standard Taqman” reagents from Applied Biosystems™ to measure ABCB11 and CYP7A1 gene expression. Gene expression data was normalized to the housekeeper gene, beta-2-microglobulin (B2M).
ASOs targeting ABCB11 regRNA enhance bile acid efflux in vitro. Levels of cholesterol 7 alpha-hydroxylase (CYP7A1) mRNA (or the enzymatic activity of its protein) can be used to track changes in bile acid synthesis in the liver since the CYP7A1 protein is the first and rate-limiting step in the conversion of cholesterol to bile acids (see, e.g., Chiang and Ferrel (2020) Liver Res. 4 (2): 47-63). […] Conversely, when bile acid levels reach high levels, this gene is actively down regulated. These changes are mediated by farnesoid X receptor (FXR), a sensor of bile acid levels, and the master regulator of intracellular bile acid concentrations. CYP7A1 mRNA can therefore be used as a surrogate for monitoring changes in hepatic bile acids in response to ASO treatment. Accordingly, an ASO that successfully increases ABCB11 expression would be expected to promote increased bile acid efflux, thus reducing bile acid levels in the cell. In a wild-type (non-disease) setting, this reduction promotes a compensatory increase in CYP7A1 to restore normal levels.

The test system of a further data set is bile acid efflux in PHHs. The data set is described as follows: In vitro biliary clearance assay (B-CLEAR) in PHHs, d8-TCA by LC-MS. The format is cell-based, human. As for the experimental part: The ACCULIVER™ Human Biliary Clearance Kit (also known as the B-CLEAR® assay; BioIVT) was used to assess bile acid efflux in PHHs after ASO treatment. On Day 0, 4×10^5 cells were plated in 24-well collagen-coated plates and QualGro medium containing […] matrix and ASO was added 4 hrs. later. On Day 2, medium was refreshed. On Day 3, cells from some wells were harvested for RNA analysis using 350 μl Buffer RLT lysis buffer, and lysates frozen at −80° C. for later RNA extraction. On Day 4, cells in the remaining wells had medium refreshed. On Day 6, the assay was performed according to the manufacturer's instructions. Briefly, cells were conditioned with Plus or Minus Buffers provided with the assay for 10 minutes, followed by addition of deuterium-labelled sodium taurocholate (d8-TCA) for 10 mins. Cells were washed 3 times, and frozen after the final wash. Analysis of d8-TCA was performed using liquid chromatography-mass spectrometry (LC-MS) (BioIVT). Calculations of bile acid clearance were made from the resulting LC-MS data according to the manufacturer's instructions.

Data set [2] deals with human ABCB11 mRNA. The data set is described as follows: Liver-humanized FRG knockout mice, human ABCB11 mRNA in liver by qPCR. The format is in vivo. As for the experimental part:
(§1) In a first in vivo study, female liver-humanized FRG® (Fah^−/−; Rag2^−/−; Il2rg^−/−) knockout mice (Yecuris™) were used to assess the efficacy of the human ABCB11 regRNA-targeting ASOs CO-3986 and CO-4535 in the context of cholestasis. The mice were grouped evenly based on albumin and body weight.
A. First Study. Two groups of five mice were dosed with GalNAc3—CO-7378 (CO-3986 conjugated to GalNAc3) or GalNAc3—CO-7379 ([…]) respectively, control via subcutaneous (SC) injection on Days 0 and 7. One group of five mice was dosed with PBS control via SC injection on Days 0 and 7. […] The serum (two tubes for each animal, 15 μL and 25 μL, for each timepoint) was analyzed using LC-MS (Creative Proteomics) to assess bile acids and 7αC4 levels. The remaining samples collected were analyzed for total serum bile acid levels using a commercial kit. […]
(§2) Frozen liver pieces were pulverized on dry ice and RNA extracted using TRIzol™ reagent. cDNA was generated and analyzed using qPCR to detect ABCB11 mRNA levels and other genes of interest as described above. Serum 7αC4 levels were detected using LC-MS (Creative Proteomics). Total serum bile acids were measured using the Total Bile Acid Fluorometric Assay Kit (Cell BioLabs). Liver bile acids were measured using the Total Bile Acid Fluorometric Assay Kit.

A further data set has as its system bile acids. In words: Liver-humanized FRG knockout mice, liver and serum bile acids. The format is in vivo, mouse. As for the experimental part: as §1
A. First Study. Two groups of five mice were dosed with GalNAc3—CO-7378 (CO-3986 conjugated to GalNAc3) or GalNAc3—CO-7379 ([…]) respectively, control via subcutaneous (SC) injection on Days 0 and 7. One group of five mice was dosed with PBS control via SC injection on Days 0 and 7. A fourth group of five mice was treated with ursodeoxycholic acid (UDCA) via intraperitoneal (IP) injection on Days 14-21. […] On Day 21, the animals were euthanized for terminal harvest after fasting overnight and >350 μL of whole blood was processed to serum. 100 μL of whole blood was collected in the same manner as the previous bleeds, prior to euthanasia and final exsanguination. Harvested livers were perfused with cold PBS with the left lobe and remnant liver frozen separately after bile salt collection. A piece of the ileum tissue was removed and flushed with PBS and snap-frozen. The serum (two tubes for each animal, 15 μL and 25 μL, for each timepoint) was analyzed using LC-MS (Creative Proteomics) to assess bile acids and 7αC4 levels. The remaining samples collected were analyzed for total serum bile acid levels using a commercial kit.
(§3) B. Second Study. In a second in vivo study was conducted to assess the ability of CO-11202 (CO-12367 conjugated with GalNAc3). Mice were dosed with […] on Days 0 and 7 via SC injection. One group of five mice were dosed with PBS control via SC injection on Days 0 and 7. One group of five mice received 10 mg/kg of obeticholic acid (OCA) via oral gavage daily for 21 days. Fasting blood was collected from the mice on Days 0, 7, 14 and 21 (collection performed prior to any SC injections) and processed to serum to analyze bile acid levels. On Day 21, mice were euthanized and livers and ileum tissue harvested and processed as described above.
as §2

For another data set, the system named is mouse Abcb11 mRNA. In words: Liver-humanized FRG knockout mice, mouse Abcb11 mRNA in liver. The format is in vivo. To be noted: second study, liver-humanized FRG knockout mice (FIG. 15A). On the procedure:
as §3, §2

Turning to “CO-3986: ASO targeting paRNA RR63 of human ABCB11 (antisense eT*eG*eT*eT*eT*eT*eG*e[5mC]*eT*eT*eG*eG*eT*e[5mC]*eA*eA*eG*eA*eG*eG)”, in the data set with human ABCB11 mRNA [1] (PHHs of the B-CLEAR experiment, dose response (FIG. 7A)), the “ABCB11 expression (duplicate wells, qRT-PCR)” value was “increased ABCB11 expression”. The “upregulation of ABCB11 mRNA” value with human ABCB11 mRNA [1] (PHHs, Day 3, normalized to untreated PHHs) is “approximately 1.5 fold”. The “ABCB11 mRNA, dose titration” value with human ABCB11 mRNA [1] (PHHs) is listed as “dose-dependent increase”. Further, the “ABCB11 mRNA FC (5 μM ASO vs. UNT)” value with human ABCB11 mRNA [1] (primary human hepatocytes, 5 μM ASO, normalized to untreated PHHs (UNT)) was 1.27 fold change. For the same substance, in the data set on CYP7A1 mRNA, the “expression of CYP7A1 mRNA, dose response” value is listed as “increased expression of CYP7A1 mRNA in a dose-dependent manner”. Besides, the CYP7A1 expression entry with CYP7A1 mRNA (PHHs of the B-CLEAR experiment (FIG. 7B)) is “upregulated”. Moreover, in the data set with bile acid efflux in PHHs (5 μM and 10 μM ASO, bile acid efflux assay (FIG. 7C)), the “intracellular and extracellular bile acid levels” value is “reduced intracellular and extracellular bile acid levels”. In addition, in the data set with bile acid efflux in PHHs (B-CLEAR assay), the “efflux of bile acids from the intracellular compartment to the bile cannuliculi” value is reported as “increased”. The “human ABCB11 expression” value in the data set on human ABCB11 mRNA [2] (first study, SC on Days 0 and 7) is listed as “increased human ABCB11 expression”. Moreover, the “liver bile acid efflux” value with bile acids (first study, liver-humanized FRG knockout mice) is “increased efflux of bile acid”. Further, the “ratio of liver bile acid (BA) to serum BA” value with bile acids (first study, liver-humanized FRG knockout mice (FIG. 9B)) is “decreased ratio of liver bile acid (BA) to serum BA”. Further, the intracellular bile acids result with bile acids (first study, liver-humanized FRG knockout mice, ASO-treated mice) is “lower levels of intracellular bile acids”.

Take “CO-4556: ASO targeting eRNA RR74 (RR74_v1) of human ABCB11 (antisense eG*eA*eA*eG*eG*eA*e[5mC]*eA*e[5mC]*eA*eA*eT*eT*eT*e[5mC]*eT*eG*eT*eA*eG)”: the “ABCB11 mRNA expression, dose response” value in the data set with human ABCB11 mRNA [1] (PHHs, Day 4 after ASO treatment (FIG. 5A)) was “dose-responsive increase”. Besides, the “ABCB11 mRNA, dose titration” value with human ABCB11 mRNA [1] (PHHs) is given as “dose-dependent increase”. Besides, the “expression of CYP7A1 mRNA, dose response” value in the data set with CYP7A1 mRNA is on record as “increased expression of CYP7A1 mRNA in a dose-dependent manner”. Further, in the data set on CYP7A1 mRNA (PHHs, Day 4, relative to B2M (FIG. 5B)), the “CYP7A1 mRNA levels, dose response” value is on record as “dose-responsive increases”.

Regarding “CO-12367: GalNAc3 conjugate counterpart of CO-11202, dosed SC in liver-humanized mice (antisense eT*eG*eTeT*eT*eT*eG*e[5mC]eT*eT*eG*eG*eTe[5mC]*eA*eA*eG*eAeG*eG-{TEG})”, the “human ABCB11 expression” value with human ABCB11 mRNA [2] (second study, 10 mg/CO-12367 SC on Days 0 and 7) is “increased human ABCB11 expression”. In the data set on bile acids (second study, liver-humanized FRG knockout mice (FIG. 15B)), the “serum bile acid levels” value is reported as “decrease in serum bile acid levels”. Moreover, the “mouse Abcb11 expression” value with mouse Abcb11 mRNA is listed as “without affecting mouse Abcb11 expression”.
